{"source": "paper PMC9890698", "about": "(BMC Biology, 2023)", "key": {"[1]": {"test_system": "washed human platelets (P2Y1-R/Gαq signaling)", "assay": "IP1 accumulation assay (HTRF) in washed human platelets", "assay_type": "cell-based", "conditions": "Gq inhibitor 100 nM, 2 h", "experimental": "(§1) As performed in HEK293T cells, we thus quantified intracellular IP1 levels to monitor Gαq protein-dependent signaling pathways.\nHuman platelets were prepared from adult healthy volunteers free of antiplatelet or anti-inflammatory medication since at least ten days. […] After two steps of centrifugation and suspension in Tyrode’s buffer (140 mM NaCl, 5 mM KCl, 5 mM KH2PO4, 1 mM MgSO4, 10 mM HEPES, 5 mM glucose and 0.35% (w/v) BSA, pH 6,7), washed platelets were suspended in the same buffer adjusted to pH 7.4 and containing 1 mM CaCl2. The final platelet suspension was adjusted to 3.10^8 platelets/mL and rested for 45 min in the presence of 0.02 U/mL apyrase and 10 μM indomethacin at 37 °C prior experiments. PGI2 (0.5 μM) was added before centrifugation steps to avoid platelet activation.\n(§2) Quantification of intracellular IP1 was performed using the HTRF (Homogeneous Time Resolved Fluorescence) IP1 competitive immunoassay (IP-One Tb kit. Cisbio. France) according to the manufacturer’s instructions. Briefly, 20,000 HEK293T/17 cells or 3.10^6 platelets were distributed in a 384-well white microplate (Greiner) and incubated with the indicated molecules for 30 min or 2 h at 37 °C in the presence of 50 mM of LiCl to prevent IP1 degradation. After addition of d2-labeled IP1 (acceptor) and anti-IP1-Cryptate (donor) for 1 h, the specific FRET signals were calculated by the fluorescence ratio of the acceptor and donor emission signal (665/620 nm) collected using a modified Infinite F500 (Tecan Group Ltd). Conversion of the HTRF ratio of each sample into IP1 concentrations was performed on the basis of a standard curve to determine the linear dynamic range of the assay."}, "[2]": {"test_system": "washed murine platelets (P2Y1-R/Gαq signaling)", "assay": "IP1 accumulation assay (HTRF) in washed murine platelets", "assay_type": "cell-based, mouse", "conditions": "Gq inhibitor 100 nM, 2 h", "experimental": "as §1\nPlatelet-rich plasma (PRP) was obtained by mixing blood with 1 volume of modified Hepes Tyrode’s buffer (137 mM NaCl, 2 mM KCl, 12 mM NaHCO3, 0.3 mM NaH2PO4, 1 mM MgCl2, 2 mM CaCl2, 5.5 mM glucose, 5 mM HEPES, and 0.35% (w/v) BSA, pH 6.7) followed by a centrifugation at 150 g for 2 min at 37 °C. Then, platelets were pelleted by centrifugation at 1000 g for 4 min, resuspended in modified Hepes Tyrode’s buffer (pH 7.4), adjusted to 3.10^8 platelets/mL in the presence of 0.02 U/mL of apyrase and 10 μM indomethacin and rested for 45 minutes at 37°C before platelet stimulation. PGI2 (0.5 μM) was added before centrifugation steps to avoid platelet activation.\nas §2"}, "Human P2Y1-R": {"molecular_target": "T1, Human P2Y1-R (Homo sapiens, UniProt P47900)", "T1 construct": "expressed in transfected cells; host or cells: HEK293T/17", "T1 sequence (P47900 whole entry)": "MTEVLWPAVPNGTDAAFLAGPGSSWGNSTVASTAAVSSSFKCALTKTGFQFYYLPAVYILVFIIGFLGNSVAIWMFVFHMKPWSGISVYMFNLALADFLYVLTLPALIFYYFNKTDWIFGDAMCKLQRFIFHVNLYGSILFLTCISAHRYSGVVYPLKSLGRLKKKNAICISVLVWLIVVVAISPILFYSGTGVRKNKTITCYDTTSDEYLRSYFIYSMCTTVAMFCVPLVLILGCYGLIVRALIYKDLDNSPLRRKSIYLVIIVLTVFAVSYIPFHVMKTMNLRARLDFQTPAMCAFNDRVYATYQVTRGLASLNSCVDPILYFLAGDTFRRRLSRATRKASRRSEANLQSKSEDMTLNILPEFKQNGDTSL", "assay": "IP1 accumulation assay (HTRF) in HEK293T cells expressing P2Y1-R", "assay_type": "cell-based", "conditions": "ADP 100 μM, MRS2179 10 μM, Gq inhibitor 100 nM, 2 h, result in words"}, "HEK293T cells (pcDNA3.1)": {"test_system": "HEK293T cells (pcDNA3.1)", "assay": "IP1 accumulation assay (HTRF) in control HEK293T cells (pcDNA3.1)", "assay_type": "cell-based, Human", "conditions": "pcDNA3.1, Gq inhibitor 100 nM, 2 h", "description": "Since Gαq protein activation is known to induce PLC activation leading to IP3 and subsequent cytosolic calcium release, we analyzed the constitutive Gαq-dependent P2Y1-R signaling by quantifying intracellular inositol monophosphate (IP1) using a monoclonal antibody-based competitive ELISA. IP1 is a downstream metabolite of IP3 that accumulates in cells following Gαq protein-coupled receptor activation, making it an ideal readout for Gαq protein-dependent signaling pathways.\nas §2"}, "P2Y12-R": {"test_system": "P2Y12-R", "conditions": "result in words; cited from earlier work"}, "washed human platelets": {"test_system": "washed human platelets", "conditions": "TRAP stimulation, result in words", "experimental": "For platelet dense granule secretion, washed human platelets were stimulated with 50 μM TRAP (10 min, 37 °C) and stained with conjugated anti-CD63 FITC-conjugated antibody (BD Biosciences reference 557288. 1:5) for 15 min at room temperature. The platelets were then diluted into 1 mL PBS and samples were then kept in the dark until analysis by flow cytometry. The results are expressed as median fluorescence intensity (MFI)."}}, "note": "“And” between values parts separate entries of the source, which are not always exact repeats. Identical values can stand only once. *1 amine or outer side, *2 acyl side, *3 side chain or, on linkers, in order; H or OH if unused. Where a SMILES comes first, the peptide text is derived from it. Bridges are numbered along the chain shown (N, C = ends). [ ]: non-standard residue; d: D form. The star is where a group is joined. Leu(3R-OH,Nα-propionyl) = CCC(=O)N[C@H](C(=O)*)[C@H](O)C(C)C; X1 = CC(C)[C@@H](O[*:3])[C@H](N[*:1])C(=O)[*:2]; NMeT = CN[C@H](C(=O)O)[C@@H](C)O; dPhLac = O=C(O)[C@H](O)Cc1ccccc1; NMeA = CN[C@@H](C)C(=O)O; NMeDha = C=C(NC)C(=O)O"}
{"compound": "C=C1C(=O)N[C@@H](C)C(=O)N(C)[C@@H](C)C(=O)N[C@@H]([C@H](OC(=O)[C@@H](NC(=O)CC)[C@H](O)C(C)C)C(C)C)C(=O)N(C)[C@@H]([C@@H](C)OC)C(=O)O[C@H](C(C)C)[C@H](NC(C)=O)C(=O)O[C@H](Cc2ccccc2)C(=O)N1C", "note": "[FR900359] (Ac-[X1][dPhLac][NMeDha]A[NMeA][X1](Leu(3R-OH,Nα-propionyl))[NMeT](Me); ester 1-C)", "values": [{"measurement": "IP1 concentration (% matched basal values)", "setting": "[1]; human platelets, individual donors", "value": "19.0758 % matched basal values and 11.9666 % matched basal values and 43.5394 % matched basal values and 60.8621 % matched basal values and 37.3209 % matched basal values and 49.8124 % matched basal values and 75.4834 % matched basal values and 64.9734 % matched basal values and 85.7248 % matched basal values and 88.8134 % matched basal values and 81.06 % matched basal values and 83.4552 % matched basal values and 77.0271 % matched basal values and 36.4555 % matched basal values and 43.6521 % matched basal values and 9.5459 % matched basal values"}, {"measurement": "Effect on IP1 levels", "setting": "[1]; washed human platelets, ADP 100 μM, antagonists 10 μM, apyrase 0.02 U/mL, result in words", "value": "inhibited"}, {"measurement": "IP1 concentration (% matched basal values)", "setting": "[2]; murine platelets, individual mice", "value": "27.5986 % matched basal values and 38.7127 % matched basal values and 47.9185 % matched basal values and 40.8858 % matched basal values and 59.9249 % matched basal values and 76.9346 % matched basal values and 9.098 % matched basal values and 14.2482 % matched basal values and 23.5315 % matched basal values and 11.8913 % matched basal values and 61.9938 % matched basal values and 36.9021 % matched basal values and 16.0009 % matched basal values"}, {"measurement": "Effect on IP1 levels", "setting": "[2]; washed murine platelets, ADP 100 μM, MRS2179 10 μM, apyrase 0.02 U/mL, result in words", "value": "inhibited"}, {"measurement": "Effect on IP1 production", "setting": "Human P2Y1-R", "value": "significantly reduced"}, {"measurement": "IP1 concentration", "setting": "HEK293T cells (pcDNA3.1)", "value": "132.385 nM and 158.041 nM and 95.7319 nM and 85.9635 nM and 143.254 nM"}]}
{"compound": "CCCSc1nc(N[C@@H]2C[C@H]2c2ccc(F)c(F)c2)c2nnn([C@@H]3C[C@H](OCCO)[C@@H](O)[C@H]3O)c2n1", "note": "[ticagrelor]", "values": [{"measurement": "Behaviour at P2Y12-R constitutive signaling", "setting": "P2Y12-R", "value": "inverse agonists"}]}
{"compound": "thrombin receptor activating peptide [TRAP]", "values": [{"measurement": "CD63 exposure at the platelet surface", "setting": "washed human platelets", "value": "strong exposure of CD63"}]}
{"compound": "CSCCNc1nc(SCCC(F)(F)F)nc2c1ncn2[C@@H]1O[C@H](COP(=O)(O)OP(=O)(O)C(Cl)(Cl)P(=O)(O)O)[C@@H](O)[C@H]1O", "note": "[cangrelor]", "values": [{"measurement": "Behaviour at P2Y12-R constitutive signaling", "setting": "P2Y12-R", "value": "inverse agonists"}]}
{"compound": "CCCCOC(=O)N1CCN(C(=O)[C@H](CP(=O)(O)O)NC(=O)c2cc(N3CC[C@H](OC)C3)nc(-c3ccccc3)n2)CC1", "note": "[selatogrel]", "values": [{"measurement": "Behaviour at P2Y12-R constitutive signaling", "setting": "P2Y12-R", "value": "inverse agonists"}]}
